Test results taken from US20250387378A1, “METHODS AND COMPOSITIONS FOR PREVENTING SKIN TOXICITIES CAUSED BY BIOLOGICAL TARGETED CANCER DRUGS” (Hadasit Medical Research Services & Development Limited, priority 2019, published 2025).
“Also recorded” adds a separate entry of the source. Structures can show the parent of a compound that is named as a salt. One block for each molecule: values may come before it.

Assays:
EGFR [1] = target: T1, EGFR (Homo sapiens, UniProt P00533); experiment: ELISA, blocking of cetuximab binding to EGFR; details: for blocking of cetuximab binding to EGFR (in words): ELISA
EGFR [2] = target: T1, EGFR; experiment: blocking of panitumumab (vectibix) binding to EGFR; details: FIG. 3
A431 cells [3] = experiment: annexin-V/PI flow cytometry, panitumumab induced death in A431 cells; format: cell-based; details: 72 hours
Method: Apoptosis and cell death were evaluated by annexin-V and propidium-iodide (PI) labeling, followed by flow cytometry. The experiments show improved cell viability of A431 cells treated with G-4 and E-3 compounds with panitumumab as compared to panitumumab alone. A) flow cytometry of one representative experiment showing elevation of percentage of live cells from 18% live cells after panitumumab alone verses 40% live cells with panitumumab and G-4 compound and 42% live cells with E-3 compound and panitumumab treatment. B) bar graph depicting percent live A431 cells with the different treatment conditions.

A431 cells [4] = experiment: annexin-V/PI flow cytometry, cetuximab induced cell death in A431 cells; format: cell-based
Method: (§1) Apoptosis and cell death were evaluated by annexin-V and propidium-iodide (PI) labeling, followed by flow cytometry.

[5] = tested on: phosphorylated EGFR receptor; experiment: p-EGFR level by flow cytometry, HaCaT cells treated with EGF and cetuximab; format: cell-based, human; details: for effect on p-EGFR expression (in words): HaCaT cells treated with cetuximab, 5 uM compound
Method: (§2) The novel approach proposed by the invention is to specifically target and block the effect of the anti-neoplastic biological targeted agents in the skin.
(§3) The level of phosphorylated EGFR receptor was measured in cell lines by flow cytometry.

[6] = tested on: phosphorylated EGFR receptor; experiment: p-EGFR level by flow cytometry, A431 cells treated with EGF and cetuximab; format: cell-based; details: for effect on p-EGFR expression (in words): A431 cells treated with cetuximab, 5 uM compound; for activated levels of p-EGFR: A431 cells, 20 minutes, EGF, cetuximab and 5 uM compound
Method: as §3

[7] = Franz chamber skin penetration; format: in vitro ADME, human; details: FIG. 12
Description: The inventors designed and fabricated solidified polymer micelles composed of linear […] (PEG-PLA) of ˜20 nm, which was previously shown to have stability and ability to penetrate cells efficiently.

HaCaT cells [8] = experiment: annexin-V/PI flow cytometry, cetuximab induced cell death in HaCaT cells; format: cell-based, human
Method: as §2, §1

[9] = tested on: HaCaT and A431 cell lines; experiment: MTT proliferation assay with bispecific EGFRi; format: cell-based; details: keratinocyte cell lines
Method: (§4) The efficacity of SDT-011 efficacy in preventing bispecific EGFRi binding to recombinant human EGFR (rhEGFR) was evaluated. ELISA was used to assess binding inhibition, while MTT assays in HaCaT and A431 cell lines measured the reversal of EGFR inhibition on keratinocyte cell line proliferation, and flow cytometry quantified EGFR expression on the cell surface. Additionally, in silico docking experiments provided insights into SDT-011's mechanism of action in blocking amivantamab, petosemtamab, and izalontamab.

EGFR [10] = target: T1, EGFR; experiment: flow cytometry of EGFR expression on the cell surface with bispecific EGFRi; format: cell-based
Method: as §4

[11] = target: recombinant human EGFR (rhEGFR) (Homo sapiens, UniProt P00533); experiment: ELISA, inhibition of bispecific EGFRi antibody binding to rhEGFR
Method: as §4

HaCaT cells [12] = experiment: annexin-V/PI flow cytometry, erlotinib induced death in HaCaT cells; format: cell-based, human; details: erlotinib alone, 72 hours
Method: To test if ATP analogues can protect keratinocyte from erlotinib induced death we treated HaCaT cells with erlotinib alone and with erlotinib+5 uM ATP analogue for 72 hours. Apoptosis and cell death were evaluated by annexin-V and propidium-iodide (PI) labeling, followed by flow cytometry. […] B) bar graph depicting percent dead HaCaT cells with the different treatment conditions.

keratinocytes = experiment: percent live keratinocytes after adding sn molecules to erlotinib and gefitinib; format: cell-based; details: added to erlotinib and gefitinib, FIG. 9B
HaCaT keratinocytes = experiment: percent survival of HaCaT keratinocytes with trametinib plus sn8; format: cell-based, human; details: added to trametinib, FIG. 9B
[13] = panitumumab + compound (0.5 uM and 5 uM)
[14] = G-4 added to cetuximab treatment, 72 hours, one representative experiment
[15] = cetuximab + 0.5 uM and 5 uM G-4, 72 hours

Molecule: Cc1cc(Cl)cc(N)c1N [E3, (2-amino-4-chloro-6-methylphenyl)amine hydrochloride]
blocking of cetuximab binding to EGFR (in words) (EGFR [1]; hydrochloride): blocking of cetuximab binding to EGFR; also recorded: dose-dependent manner | blocking of panitumumab (vectibix) binding to EGFR (in words) (EGFR [2]): block the binding | live cells (A431 cells [3]; [13]): 42%

blocking of binding of cetuximab to EGFR (EGFR [1]; screening plate, FIG. 2A): 42% | penetration through full human skin (in words) [7]: does not penetrate full human skin | blocking of panitumumab (vectibix) binding to EGFR (in words) (EGFR [2]): block the binding
Molecule: CC(=O)c1sc2nc(-c3cccnc3)cc(C(F)F)c2c1N [G4, 1-[3-amino-4-(difluoromethyl)-6-(3-pyridinyl)thieno[2,3-b]pyridin-2-yl]ethanone]
live cells (A431 cells [4]; [14]): 54.5% | average improvement of viability against cetuximab induced cell death (A431 cells [4]; [15]): more than 50% | blocking of cetuximab binding to EGFR (in words) (EGFR [1]): blocking of cetuximab binding to EGFR; also recorded: dose-dependent manner; also recorded: block cetuximab's binding to EGFR | effect on p-EGFR expression (in words) [5]: increase p-EGFR expression | effect on p-EGFR expression (in words) [6]: increase p-EGFR expression | activated levels of p-EGFR [6]: ~30% | live cells (HaCaT cells [8]; [14]): 64% | average improvement of viability against cetuximab induced cell death (HaCaT cells [8]; [15]): 30% | live cells (A431 cells [3]; [13]): 40%

total EGFR (tEGFR) expression / receptor internalization by amivantamab (in words) (EGFR [10]; FIG. 18 panel A): stabilizes total EGFR (tEGFR) expression | total EGFR (tEGFR) expression / receptor internalization by petosemtamab (in words) (EGFR [10]; FIG. 18 panel B): stabilizes total EGFR (tEGFR) expression | total EGFR (tEGFR) expression / receptor internalization by izalontamab (in words) (EGFR [10]; FIG. 18 panel C): stabilizes total EGFR (tEGFR) expression | inhibition of amivantamab binding to EGFR (in words) ([11]; FIG. 17 panel A): effectively inhibited the binding | inhibition of petosemtamab binding to EGFR (in words) ([11]; FIG. 17 panel B): effectively inhibited the binding | inhibition of izalontamab binding to EGFR (in words) ([11]; FIG. 17 panel C): effectively inhibited the binding
Molecule: Cc1ccc(-c2cc(C(F)(F)F)c3c(N)c(C#N)sc3n2)cc1 [LW11]
blocking of cetuximab binding to EGFR (in words) (EGFR [1]): dose-dependent manner; also recorded: block cetuximab's binding to EGFR | antiproliferative effects induced by amivantamab (in words) ([9]; FIG. 18 panel D): reversal of the antiproliferative effects | antiproliferative effects induced by petosemtamab (in words) ([9]; FIG. 18 panel E): reversal of the antiproliferative effects | antiproliferative effects induced by izalontamab (in words) ([9]; FIG. 18 panel F): reversal of the antiproliferative effects | effect on p-EGFR expression (in words) [5]: increase p-EGFR expression | activated levels of p-EGFR ([5]; HaCaT cells, 20 minutes, EGF, cetuximab and 5 uM compound): up to 46% | effect on p-EGFR expression (in words) [6]: increase p-EGFR expression | activated levels of p-EGFR [6]: ~30%

Molecule: C#Cc1cccc(Nc2ncnc3cc(OCCOC)c(OCCOC)cc23)c1 [erlotinib]
dead cells (HaCaT cells [12]): 13.5%

Molecule: N#Cc1cc(N)ccc1F [sn6]
percent live keratinocytes (in words) (keratinocytes): improved percent live keratinocytes

Molecule: CC(=O)Nc1ccc(F)c(Cl)c1 [sn7]
percent live keratinocytes (in words) (keratinocytes): improved percent live keratinocytes

Molecule: Nc1ccc(OCc2ccccn2)c(Cl)c1 [sn8]
percent survival of HaCaT keratinocytes (in words) (HaCaT keratinocytes): improved percent survival of HaCaT keratinocytes | percent live keratinocytes (in words) (keratinocytes): improved percent live keratinocytes

Molecule: O=C(CN1C(=O)c2ccccc2C1=O)Nc1cccc(Cl)c1 [sn9]
percent live keratinocytes (in words) (keratinocytes): improved percent live keratinocytes

Molecule: panitumumab: human monoclonal antibody specific to the epidermal growth factor receptor [reference compound]
live cells (A431 cells [3]; panitumumab alone): 18%
